#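 A five-concentration, 48-hour dose response in 96-well plates underlies each endpoint, interpolated linearly between surrounding concentrations. At the TGI there is no net growth.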
# Legend:
# Experiment in all cases: growth of human tumour cells (NCI), 48 h
# LOX IMVI melanoma = tested on: LOX IMVI melanoma
# DLD-1 colon = tested on: DLD-1 colon
# HCT-15 colon = tested on: HCT-15 colon
# EKVX NSCLC = tested on: EKVX NSCLC
# M19-MEL melanoma = tested on: M19-MEL melanoma
# DMS 273 small cell lung = tested on: DMS 273 small cell lung
# HOP-92 NSCLC = tested on: HOP-92 NSCLC
# SN12C renal = tested on: SN12C renal
# K-562 leukemia = tested on: K-562 leukemia
# SF-295 CNS = tested on: SF-295 CNS
# HL-60(TB) leukemia = tested on: HL-60(TB) leukemia
# HOP-62 NSCLC = tested on: HOP-62 NSCLC
# NCI-H226 lung = tested on: NCI-H226 lung
# KM12 colon = tested on: KM12 colon
# MOLT-4 leukemia = tested on: MOLT-4 leukemia
# TK-10 renal = tested on: TK-10 renal
# UACC-62 melanoma = tested on: UACC-62 melanoma
# 786-0 renal = tested on: 786-0 renal
# SNB-75 CNS = tested on: SNB-75 CNS
# U251 CNS = tested on: U251 CNS
# NCI-H522 lung = tested on: NCI-H522 lung
# KM20L2 colon = tested on: KM20L2 colon
# OVCAR-3 ovarian = tested on: OVCAR-3 ovarian
# SF-539 CNS = tested on: SF-539 CNS
# UACC-257 melanoma = tested on: UACC-257 melanoma
# DMS 114 small cell lung = tested on: DMS 114 small cell lung
# MALME-3M melanoma = tested on: MALME-3M melanoma
# HT29 colon = tested on: HT29 colon
# A549 NSCLC = tested on: A549 NSCLC
# SK-MEL-28 melanoma = tested on: SK-MEL-28 melanoma
# CCRF-CEM leukemia = tested on: CCRF-CEM leukemia
# CAKI-1 renal = tested on: CAKI-1 renal
# SF-268 CNS = tested on: SF-268 CNS
# SK-MEL-2 melanoma = tested on: SK-MEL-2 melanoma
# UO-31 renal = tested on: UO-31 renal
# COLO 205 colon = tested on: COLO 205 colon
# RXF 393 renal = tested on: RXF 393 renal
# OVCAR-5 ovarian = tested on: OVCAR-5 ovarian
# OVCAR-8 ovarian = tested on: OVCAR-8 ovarian
# SK-MEL-5 melanoma = tested on: SK-MEL-5 melanoma
# SNB-78 CNS = tested on: SNB-78 CNS
# NCI-H460 lung = tested on: NCI-H460 lung
# IGROV1 ovarian = tested on: IGROV1 ovarian
# RPMI-8226 leukemia = tested on: RPMI-8226 leukemia
# HCC-2998 colon = tested on: HCC-2998 colon
# HOP-18 NSCLC = tested on: HOP-18 NSCLC
# A498 renal = tested on: A498 renal
# NCI-H23 lung = tested on: NCI-H23 lung
# SW-620 colon = tested on: SW-620 colon
# ACHN renal = tested on: ACHN renal
# SK-OV-3 ovarian = tested on: SK-OV-3 ovarian
# LXFL 529 NSCLC = tested on: LXFL 529 NSCLC
# SR leukemia = tested on: SR leukemia
# SNB-19 CNS = tested on: SNB-19 CNS
# M14 melanoma = tested on: M14 melanoma
# HCT-116 colon = tested on: HCT-116 colon
# OVCAR-4 ovarian = tested on: OVCAR-4 ovarian
# XF 498 CNS = tested on: XF 498 CNS
structure (smiles),measurement,setting,value
Cc1nc(-c2cccnc2)sc1C(=O)/C=C/c1ccc(Cl)cc1Cl,TGI,LOX IMVI melanoma,> 100 µM
same,TGI,DLD-1 colon,> 100 µM
same,TGI,HCT-15 colon,> 100 µM
same,TGI,EKVX NSCLC,> 100 µM
same,TGI,M19-MEL melanoma,> 100 µM
same,TGI,DMS 273 small cell lung,> 100 µM
same,TGI,HOP-92 NSCLC,> 100 µM
same,TGI,SN12C renal,> 100 µM
same,TGI,K-562 leukemia,> 100 µM
same,TGI,SF-295 CNS,> 100 µM
same,TGI,HL-60(TB) leukemia,> 100 µM
same,TGI,HOP-62 NSCLC,> 100 µM
same,TGI,NCI-H226 lung,> 100 µM
same,TGI,KM12 colon,> 100 µM
same,TGI,MOLT-4 leukemia,> 100 µM
same,TGI,TK-10 renal,> 100 µM
same,TGI,UACC-62 melanoma,> 100 µM
same,TGI,786-0 renal,> 100 µM
same,TGI,SNB-75 CNS,> 100 µM
same,TGI,U251 CNS,> 100 µM
same,TGI,NCI-H522 lung,> 100 µM
same,TGI,KM20L2 colon,> 100 µM
same,TGI,OVCAR-3 ovarian,> 100 µM
same,TGI,SF-539 CNS,> 100 µM
same,TGI,UACC-257 melanoma,> 100 µM
same,TGI,DMS 114 small cell lung,> 100 µM
same,TGI,MALME-3M melanoma,> 100 µM
same,TGI,HT29 colon,> 100 µM
same,TGI,A549 NSCLC,> 100 µM
same,TGI,SK-MEL-28 melanoma,> 100 µM
same,TGI,CCRF-CEM leukemia,> 100 µM
same,TGI,CAKI-1 renal,> 100 µM
same,TGI,SF-268 CNS,> 100 µM
same,TGI,SK-MEL-2 melanoma,> 100 µM
same,TGI,UO-31 renal,> 100 µM
same,TGI,COLO 205 colon,> 100 µM
same,TGI,RXF 393 renal,> 100 µM
same,TGI,OVCAR-5 ovarian,> 100 µM
same,TGI,OVCAR-8 ovarian,> 100 µM
same,TGI,SK-MEL-5 melanoma,> 100 µM
same,TGI,SNB-78 CNS,> 100 µM
same,TGI,NCI-H460 lung,> 100 µM
same,TGI,IGROV1 ovarian,> 100 µM
same,TGI,RPMI-8226 leukemia,> 100 µM
same,TGI,HCC-2998 colon,> 100 µM
same,TGI,HOP-18 NSCLC,> 100 µM
same,TGI,A498 renal,> 100 µM
same,TGI,NCI-H23 lung,> 100 µM
same,TGI,SW-620 colon,> 100 µM
same,TGI,ACHN renal,> 100 µM
same,TGI,SK-OV-3 ovarian,> 100 µM
Cn1ncc2c(c1=O)Nc1ccccc1S2(=O)=O,TGI,LOX IMVI melanoma,> 100 µM
same,TGI,DLD-1 colon,> 100 µM
same,TGI,HCT-15 colon,> 100 µM
same,TGI,EKVX NSCLC,> 100 µM
same,TGI,M19-MEL melanoma,> 100 µM
same,TGI,DMS 273 small cell lung,> 100 µM
same,TGI,HOP-92 NSCLC,> 100 µM
same,TGI,SN12C renal,> 100 µM
same,TGI,K-562 leukemia,> 100 µM
same,TGI,SF-295 CNS,> 100 µM
same,TGI,HOP-62 NSCLC,> 100 µM
same,TGI,NCI-H226 lung,> 100 µM
same,TGI,KM12 colon,> 100 µM
same,TGI,MOLT-4 leukemia,> 100 µM
same,TGI,TK-10 renal,> 100 µM
same,TGI,UACC-62 melanoma,> 100 µM
same,TGI,786-0 renal,75.3 µM
same,TGI,LXFL 529 NSCLC,> 100 µM
same,TGI,SNB-75 CNS,> 100 µM
same,TGI,U251 CNS,> 100 µM
same,TGI,NCI-H522 lung,> 100 µM
same,TGI,KM20L2 colon,> 100 µM
same,TGI,OVCAR-3 ovarian,> 100 µM
same,TGI,SF-539 CNS,49 µM
same,TGI,UACC-257 melanoma,> 100 µM
same,TGI,DMS 114 small cell lung,40.9 µM
same,TGI,MALME-3M melanoma,> 100 µM
same,TGI,HT29 colon,> 100 µM
same,TGI,SR leukemia,> 100 µM
same,TGI,A549 NSCLC,> 100 µM
same,TGI,SK-MEL-28 melanoma,> 100 µM
same,TGI,CCRF-CEM leukemia,> 100 µM
same,TGI,CAKI-1 renal,> 100 µM
same,TGI,SF-268 CNS,> 100 µM
same,TGI,SK-MEL-2 melanoma,> 100 µM
same,TGI,UO-31 renal,> 100 µM
same,TGI,COLO 205 colon,> 100 µM
same,TGI,SNB-19 CNS,> 100 µM
same,TGI,OVCAR-5 ovarian,> 100 µM
same,TGI,OVCAR-8 ovarian,> 100 µM
same,TGI,SK-MEL-5 melanoma,> 100 µM
same,TGI,SNB-78 CNS,> 100 µM
same,TGI,M14 melanoma,> 100 µM
same,TGI,HCT-116 colon,> 100 µM
same,TGI,NCI-H460 lung,> 100 µM
same,TGI,IGROV1 ovarian,> 100 µM
same,TGI,RPMI-8226 leukemia,97.6 µM
same,TGI,HCC-2998 colon,> 100 µM
same,TGI,HOP-18 NSCLC,> 100 µM
same,TGI,A498 renal,> 100 µM
same,TGI,NCI-H23 lung,> 100 µM
same,TGI,SW-620 colon,32.4 µM
same,TGI,OVCAR-4 ovarian,> 100 µM
same,TGI,ACHN renal,> 100 µM
same,TGI,SK-OV-3 ovarian,> 100 µM
O=C(Nc1ccccc1)Oc1ccccc1C1CCCCC1,TGI,LOX IMVI melanoma,26.8 µM
same,TGI,DLD-1 colon,> 100 µM
same,TGI,HCT-15 colon,40.9 µM
same,TGI,EKVX NSCLC,85.4 µM
same,TGI,M19-MEL melanoma,37.5 µM
same,TGI,DMS 273 small cell lung,42.6 µM
same,TGI,HOP-92 NSCLC,31.3 µM
same,TGI,SN12C renal,41.1 µM
same,TGI,K-562 leukemia,50.3 µM
same,TGI,SF-295 CNS,51.2 µM
same,TGI,HL-60(TB) leukemia,35.2 µM
same,TGI,HOP-62 NSCLC,59.6 µM
same,TGI,NCI-H226 lung,37.6 µM
same,TGI,KM12 colon,> 100 µM
same,TGI,MOLT-4 leukemia,> 100 µM
same,TGI,TK-10 renal,> 100 µM
same,TGI,UACC-62 melanoma,> 100 µM
same,TGI,786-0 renal,53.2 µM
same,TGI,LXFL 529 NSCLC,> 100 µM
same,TGI,SNB-75 CNS,39.9 µM
same,TGI,U251 CNS,30.7 µM
same,TGI,OVCAR-3 ovarian,34.7 µM
same,TGI,SF-539 CNS,> 100 µM
same,TGI,UACC-257 melanoma,40.2 µM
same,TGI,DMS 114 small cell lung,32.8 µM
same,TGI,MALME-3M melanoma,57.1 µM
same,TGI,HT29 colon,51.6 µM
same,TGI,SR leukemia,55.7 µM
same,TGI,A549 NSCLC,88.5 µM
same,TGI,SK-MEL-28 melanoma,58.1 µM
same,TGI,CCRF-CEM leukemia,67.3 µM
same,TGI,SF-268 CNS,> 100 µM
same,TGI,UO-31 renal,74.3 µM
same,TGI,COLO 205 colon,30.6 µM
same,TGI,RXF 393 renal,21.9 µM
same,TGI,SNB-19 CNS,> 100 µM
same,TGI,OVCAR-5 ovarian,> 100 µM
same,TGI,OVCAR-8 ovarian,> 100 µM
same,TGI,SK-MEL-5 melanoma,26.9 µM
same,TGI,SNB-78 CNS,54.9 µM
same,TGI,M14 melanoma,56.7 µM
same,TGI,HCT-116 colon,90.2 µM
same,TGI,NCI-H460 lung,60 µM
same,TGI,IGROV1 ovarian,> 100 µM
same,TGI,RPMI-8226 leukemia,52 µM
same,TGI,HCC-2998 colon,81.5 µM
same,TGI,HOP-18 NSCLC,68.5 µM
same,TGI,A498 renal,> 100 µM
same,TGI,NCI-H23 lung,47.1 µM
same,TGI,SW-620 colon,72.5 µM
same,TGI,OVCAR-4 ovarian,37.3 µM
same,TGI,XF 498 CNS,35 µM
same,TGI,SK-OV-3 ovarian,> 100 µM

# — PubChem BioAssay (NCI)
